Measurements taken from paper PMC4492579, “Potent and Selective Triazole-Based Inhibitors of the Hypoxia-Inducible Factor Prolyl-Hydroxylases with Activity in the Murine Brain” (PLoS ONE, 2015).

Assays:
JMJD2C (KDM4C) = molecular target: T1, JMJD2C (KDM4C) (Homo sapiens, UniProt Q9H3R0); parameters: method as in PMID 26682036; settings: cited from earlier work
T1 sequence (Q9H3R0 1-1056): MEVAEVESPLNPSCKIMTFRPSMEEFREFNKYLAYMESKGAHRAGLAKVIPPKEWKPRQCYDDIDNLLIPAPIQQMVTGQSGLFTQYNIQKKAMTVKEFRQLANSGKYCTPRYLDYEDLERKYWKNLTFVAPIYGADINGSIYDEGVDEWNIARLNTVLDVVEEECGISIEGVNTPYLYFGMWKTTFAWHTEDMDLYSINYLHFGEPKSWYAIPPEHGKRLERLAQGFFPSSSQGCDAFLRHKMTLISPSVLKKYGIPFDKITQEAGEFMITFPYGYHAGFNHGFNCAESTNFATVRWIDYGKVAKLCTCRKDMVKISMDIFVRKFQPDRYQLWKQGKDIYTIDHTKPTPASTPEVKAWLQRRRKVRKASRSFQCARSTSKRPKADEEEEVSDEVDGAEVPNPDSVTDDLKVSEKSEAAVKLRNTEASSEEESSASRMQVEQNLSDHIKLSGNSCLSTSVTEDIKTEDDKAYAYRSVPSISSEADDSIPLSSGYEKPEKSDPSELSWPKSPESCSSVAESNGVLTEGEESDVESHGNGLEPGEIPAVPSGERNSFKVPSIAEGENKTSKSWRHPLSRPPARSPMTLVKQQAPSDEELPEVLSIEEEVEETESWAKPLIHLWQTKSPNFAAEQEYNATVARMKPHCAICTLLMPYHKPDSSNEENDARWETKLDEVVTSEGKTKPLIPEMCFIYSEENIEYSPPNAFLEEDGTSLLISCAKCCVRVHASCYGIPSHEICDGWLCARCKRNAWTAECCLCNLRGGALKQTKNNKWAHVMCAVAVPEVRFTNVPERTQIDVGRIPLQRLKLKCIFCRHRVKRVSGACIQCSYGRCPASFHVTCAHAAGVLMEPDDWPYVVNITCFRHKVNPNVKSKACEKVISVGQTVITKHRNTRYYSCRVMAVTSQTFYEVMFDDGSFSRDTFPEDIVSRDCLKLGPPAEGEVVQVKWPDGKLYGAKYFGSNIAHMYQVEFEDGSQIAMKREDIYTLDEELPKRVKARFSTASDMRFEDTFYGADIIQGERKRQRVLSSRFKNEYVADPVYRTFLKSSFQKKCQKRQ

JMJD2E (KDM4E) = molecular target: T2, JMJD2E (KDM4E) (Homo sapiens, UniProt B2RXH2); parameters: method as in PMID 26682036; settings: cited from earlier work
T2 sequence (B2RXH2 1-506): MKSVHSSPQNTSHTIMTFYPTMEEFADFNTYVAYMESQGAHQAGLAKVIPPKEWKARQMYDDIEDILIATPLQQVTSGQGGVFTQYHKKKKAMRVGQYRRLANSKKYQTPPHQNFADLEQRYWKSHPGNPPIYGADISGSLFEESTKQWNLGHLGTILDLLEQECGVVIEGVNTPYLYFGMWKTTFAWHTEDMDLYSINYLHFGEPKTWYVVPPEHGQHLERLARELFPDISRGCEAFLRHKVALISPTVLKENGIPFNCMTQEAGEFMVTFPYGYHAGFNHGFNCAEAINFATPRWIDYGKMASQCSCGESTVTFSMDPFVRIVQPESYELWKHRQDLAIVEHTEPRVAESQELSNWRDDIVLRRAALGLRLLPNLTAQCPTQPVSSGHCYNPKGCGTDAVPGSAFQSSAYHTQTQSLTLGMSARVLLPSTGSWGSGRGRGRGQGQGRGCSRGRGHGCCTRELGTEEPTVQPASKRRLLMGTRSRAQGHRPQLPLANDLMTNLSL

JMJD3 (KDM6B) = JMJD3 (KDM6B) (Homo sapiens, UniProt O15054); parameters: method as in PMID 26682036; settings: cited from earlier work
JARID1C (KDM5C) = JARID1C (KDM5C) (Homo sapiens, UniProt P41229); parameters: method as in PMID 26682036; settings: cited from earlier work
FIH = FIH (Homo sapiens, UniProt Q9NWT6); assay: FIH liquid chromatography-mass spectrometry assay (RapidFire)
Procedure: After 15 minutes, the enzyme reaction was stopped by the addition of 4 ml 10% formic acid and the reaction mixture transferred to a RapidFire RF360 high throughput sampling robot. Samples were aspirated under vacuum onto a C4 Solid Phase Extraction (SPE) cartridge. […] Ion chromatogram data was extracted for the non-hydroxylated peptide substrate and the hydroxylated peptide product and peak area data for extracted ion chromatograms were integrated using RapidFire Integrator software. Percentage conversion of substrate to product was calculated in Microsoft Excel and IC50 values were calculated using Graphpad Prism 5.

HIF target genes = assay: qRT-PCR of HIF target genes in mouse brain; assay type: in vivo, C57BL/6 mice; settings: 1 h treatment
Procedure: All animal experiments were performed on male C57BL/6 mice aged 3 months (purchased from Harlan Laboratories, Blackthorn) housed in specific pathogen free conditions with free access to water and standard chow. Mice were injected intraperitonially with the inhibitor (dissolved in Hanks’ buffered saline solution, pH 7.0, 5% DMSO final) or vehicle at the indicated doses for the indicated time as previously described. Tissues from treated mice were harvested and ‘snap frozen’ with liquid nitrogen before being stored at -80°C. For immunoblotting, a portion of the tissues was removed, weighed and homogenised in urea/SDS buffer before being analysed by immunoblotting with HIF1α rabbit polyclonal antibody (10006421, Cayman Chemical, 1:1000) or HIF2α rabbit polyclonal antibody (PM9 [27], 1:1000). […]
Genomic DNA were removed from total RNA preparation using the TURBO DNA-free kit (AM1907, Life Technologies) according to manufacturer’s protocol. […] Relative quantifications were calculated using the ∆∆Ct method normalised to β-actin. […]
To investigate whether the induction of HIFα in the mouse brain has an effect on HIF target genes, we performed quantitative real-time PCR (qRT-PCR) analyses on HIF target genes (including those involved in angiogenesis, i.e. Vegfa, Adm and Il6).

Chain of FIH (Q9NWT6 whole entry): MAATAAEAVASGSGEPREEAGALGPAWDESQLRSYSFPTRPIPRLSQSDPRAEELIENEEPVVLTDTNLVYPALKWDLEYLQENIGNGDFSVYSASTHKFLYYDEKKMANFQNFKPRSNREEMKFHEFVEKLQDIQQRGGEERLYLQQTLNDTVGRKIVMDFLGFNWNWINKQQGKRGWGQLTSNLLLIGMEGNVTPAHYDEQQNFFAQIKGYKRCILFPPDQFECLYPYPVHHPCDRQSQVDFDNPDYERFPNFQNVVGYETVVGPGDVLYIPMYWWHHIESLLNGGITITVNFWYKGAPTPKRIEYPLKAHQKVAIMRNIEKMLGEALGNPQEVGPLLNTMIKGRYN
Chain of JMJD3 (KDM6B) (O15054 whole entry): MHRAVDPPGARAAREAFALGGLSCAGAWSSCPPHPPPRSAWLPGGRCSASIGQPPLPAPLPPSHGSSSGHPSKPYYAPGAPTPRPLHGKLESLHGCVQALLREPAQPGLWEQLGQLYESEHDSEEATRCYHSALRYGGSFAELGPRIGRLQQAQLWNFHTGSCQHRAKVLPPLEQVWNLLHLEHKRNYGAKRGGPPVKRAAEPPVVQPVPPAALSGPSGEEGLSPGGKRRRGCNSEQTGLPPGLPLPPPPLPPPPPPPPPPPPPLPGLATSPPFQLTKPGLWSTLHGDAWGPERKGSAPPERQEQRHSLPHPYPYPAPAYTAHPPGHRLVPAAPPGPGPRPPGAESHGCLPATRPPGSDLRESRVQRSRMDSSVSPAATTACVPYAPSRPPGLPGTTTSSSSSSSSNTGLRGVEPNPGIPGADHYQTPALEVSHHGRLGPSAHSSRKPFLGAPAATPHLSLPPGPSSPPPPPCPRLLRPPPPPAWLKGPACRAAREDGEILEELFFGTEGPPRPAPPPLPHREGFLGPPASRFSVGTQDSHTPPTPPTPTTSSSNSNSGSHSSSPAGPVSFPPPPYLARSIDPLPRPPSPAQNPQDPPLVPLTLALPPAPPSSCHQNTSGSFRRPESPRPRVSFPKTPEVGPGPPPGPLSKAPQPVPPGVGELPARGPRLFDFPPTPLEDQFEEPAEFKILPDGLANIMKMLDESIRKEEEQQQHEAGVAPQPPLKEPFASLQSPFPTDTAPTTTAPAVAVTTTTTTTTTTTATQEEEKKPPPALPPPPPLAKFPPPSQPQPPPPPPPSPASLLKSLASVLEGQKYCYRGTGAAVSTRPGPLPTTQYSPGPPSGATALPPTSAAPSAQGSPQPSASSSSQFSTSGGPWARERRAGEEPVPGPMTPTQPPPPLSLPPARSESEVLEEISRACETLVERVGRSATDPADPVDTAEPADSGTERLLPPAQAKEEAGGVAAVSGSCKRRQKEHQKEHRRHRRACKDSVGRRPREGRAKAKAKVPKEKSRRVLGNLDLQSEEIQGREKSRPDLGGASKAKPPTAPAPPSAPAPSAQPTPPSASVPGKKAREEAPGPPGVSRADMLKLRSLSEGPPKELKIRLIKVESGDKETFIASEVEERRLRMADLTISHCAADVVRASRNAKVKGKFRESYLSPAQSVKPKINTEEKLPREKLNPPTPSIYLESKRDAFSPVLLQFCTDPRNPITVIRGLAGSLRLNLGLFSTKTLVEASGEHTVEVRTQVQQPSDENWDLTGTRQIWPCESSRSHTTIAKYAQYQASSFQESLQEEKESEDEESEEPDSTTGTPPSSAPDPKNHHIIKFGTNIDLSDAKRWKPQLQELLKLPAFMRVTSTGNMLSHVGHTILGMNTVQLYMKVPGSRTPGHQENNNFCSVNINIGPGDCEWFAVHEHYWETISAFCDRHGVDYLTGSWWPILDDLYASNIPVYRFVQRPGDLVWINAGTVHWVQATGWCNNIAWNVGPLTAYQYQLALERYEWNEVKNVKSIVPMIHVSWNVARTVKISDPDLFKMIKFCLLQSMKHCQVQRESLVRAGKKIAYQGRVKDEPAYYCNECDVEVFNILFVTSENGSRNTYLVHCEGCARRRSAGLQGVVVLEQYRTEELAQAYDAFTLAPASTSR
Chain of JARID1C (KDM5C) (P41229 whole entry): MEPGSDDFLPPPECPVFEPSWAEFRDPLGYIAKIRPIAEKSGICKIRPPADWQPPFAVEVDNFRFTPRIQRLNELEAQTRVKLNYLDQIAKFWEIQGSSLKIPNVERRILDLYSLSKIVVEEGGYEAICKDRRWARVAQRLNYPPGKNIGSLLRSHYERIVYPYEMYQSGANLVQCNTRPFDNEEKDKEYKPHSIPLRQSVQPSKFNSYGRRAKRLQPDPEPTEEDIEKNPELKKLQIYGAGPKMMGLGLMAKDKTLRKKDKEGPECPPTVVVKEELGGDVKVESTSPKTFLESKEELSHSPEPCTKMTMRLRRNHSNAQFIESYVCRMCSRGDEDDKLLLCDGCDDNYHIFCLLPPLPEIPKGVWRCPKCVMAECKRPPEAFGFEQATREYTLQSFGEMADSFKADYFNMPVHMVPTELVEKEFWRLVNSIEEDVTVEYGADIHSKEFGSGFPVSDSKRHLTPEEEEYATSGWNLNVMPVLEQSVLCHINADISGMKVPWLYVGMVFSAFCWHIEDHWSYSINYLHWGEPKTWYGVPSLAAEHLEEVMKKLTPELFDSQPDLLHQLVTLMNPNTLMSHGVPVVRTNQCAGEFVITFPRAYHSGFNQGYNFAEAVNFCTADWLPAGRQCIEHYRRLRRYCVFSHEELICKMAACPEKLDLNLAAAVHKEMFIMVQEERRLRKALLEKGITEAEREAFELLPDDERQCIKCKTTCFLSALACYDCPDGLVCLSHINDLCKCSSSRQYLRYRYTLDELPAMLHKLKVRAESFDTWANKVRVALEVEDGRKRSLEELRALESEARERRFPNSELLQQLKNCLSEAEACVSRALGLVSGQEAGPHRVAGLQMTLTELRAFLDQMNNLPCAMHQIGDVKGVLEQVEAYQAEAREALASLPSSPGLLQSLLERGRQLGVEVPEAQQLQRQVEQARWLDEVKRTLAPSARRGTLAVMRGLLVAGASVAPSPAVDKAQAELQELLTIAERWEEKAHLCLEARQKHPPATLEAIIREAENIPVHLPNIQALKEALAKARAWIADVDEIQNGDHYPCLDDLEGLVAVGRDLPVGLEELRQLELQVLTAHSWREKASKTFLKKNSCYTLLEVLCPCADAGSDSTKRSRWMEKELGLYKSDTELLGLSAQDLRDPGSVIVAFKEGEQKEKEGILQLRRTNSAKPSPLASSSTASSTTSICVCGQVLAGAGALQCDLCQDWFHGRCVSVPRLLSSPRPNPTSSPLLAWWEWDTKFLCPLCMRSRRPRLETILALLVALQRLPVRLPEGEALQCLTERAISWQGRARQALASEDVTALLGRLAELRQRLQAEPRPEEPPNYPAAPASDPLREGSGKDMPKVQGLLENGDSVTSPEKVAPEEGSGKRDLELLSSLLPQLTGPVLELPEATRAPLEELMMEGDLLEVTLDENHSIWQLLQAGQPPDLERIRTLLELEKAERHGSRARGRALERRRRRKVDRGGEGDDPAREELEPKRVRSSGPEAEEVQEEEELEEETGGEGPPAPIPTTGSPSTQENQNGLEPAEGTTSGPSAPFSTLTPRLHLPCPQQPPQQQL

Structure (SMILES) | IC50 (JMJD2C (KDM4C)) | IC50 (JMJD2E (KDM4E)) | IC50 (JMJD3 (KDM6B)) | IC50 (JARID1C (KDM5C)) | IC50 (FIH) | mRNA levels of HIF target genes Bnip3, Ldha and Il6 in mouse brain (HIF target genes) | mRNA levels of HIF target genes Epo, Vegfa and Adm in mouse brain (HIF target genes)
O=C(O)CNC(=O)c1c(O)c2ccccc2n(Cc2ccccc2)c1=O [IOX2] | 100 µM | > 100 µM | > 100 µM | 159 µM | > 100 µM |  | 
CC(C)(C)OC(=O)c1ccc(-n2[nH]cc(-n3ccnn3)c2=O)nc1 [IOX4, t-Butyl 6-(5-oxo-4-(1H-1,2,3-triazol-1-yl)-2,5-dihydro-1H-pyrazol-1-yl)nicotinate] |  |  |  |  |  | remain unaffected | induced in a dose-dependent manner
